Measured values: paper PMC3806060 (Journal of medicinal chemistry, 2013)

How the values were obtained:
[1] = target: Bcl-2 (Homo sapiens, UniProt P10415); assay: FP based competitive binding assay, Bcl-2; settings: versus 4
[2] = tested on: H146 small-cell lung cancer cell line; assay: Cell growth inhibition assay; type: cell-based, Human; settings: for Times less potent than compound 5 in H146 cell growth inhibition: versus 5; for Times less potent than compound 28 in H146 cell growth inhibition: versus 28; for Cellular activity in H146: at 1 μM

Sequence of Bcl-2 (P10415 whole entry): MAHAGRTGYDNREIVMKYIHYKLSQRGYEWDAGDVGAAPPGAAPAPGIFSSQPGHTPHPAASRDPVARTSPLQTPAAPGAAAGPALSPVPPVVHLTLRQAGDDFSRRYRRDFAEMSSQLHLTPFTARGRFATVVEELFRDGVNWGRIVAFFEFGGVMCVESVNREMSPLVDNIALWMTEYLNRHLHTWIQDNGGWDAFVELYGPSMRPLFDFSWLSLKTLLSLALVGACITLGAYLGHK

In the case of Cc1c(C#N)c(-c2cccc(N3CCN(c4ccc(NS(=O)(=O)c5ccc(N[C@H](CCN(C)C)CSc6ccccc6)c([N+](=O)[O-])c5)cc4)CC3)c2)c(-c2ccc(Cl)cc2)n1C [Compound 15, (R)-N-(4-(4-(3-(2-(4-Chlorophenyl)-4-cyano-1,5-dimethyl-1H-pyrrol-3-yl)phenyl)piperazin-1-yl)phenyl)-4-(4-(dimethylamino)-1-(phenylthio)butan-2-ylamino)-3-nitrobenzenesulfonamide], the “Times less potent than compound 4 in binding to Bcl-2” value [1] is reported as > 10 times and the “Times less potent than compound 4 in H146 cell growth inhibition” value ([2]; versus 4) is reported as 8 times.

In the case of Cc1c(Cl)c(-c2cccc(N3CCN(c4ccc(NS(=O)(=O)c5ccc(N[C@H](CCN(C)C)CSc6ccccc6)c([N+](=O)[O-])c5)cc4)CC3)c2)c(-c2ccc(Cl)cc2)n1C [Compound 13, (R)-N-(4-(4-(3-(4-Chloro-2-(4-chlorophenyl)-1,5-dimethyl-1H-pyrrol-3-yl)phenyl)piperazin-1-yl)phenyl)-4-(4-(dimethylamino)-1-(phenylthio)butan-2-ylamino)-3-nitrobenzenesulfonamide], the “Times less potent than compound 4 in binding to Bcl-2” value [1] is reported as 100 times and the “Times less potent than compound 4 in H146 cell growth inhibition” value ([2]; versus 4) is reported as > 100 times.

CCCCn1c(C)c(C(=O)O)c(-c2cccc(N3CCN(c4ccc(NS(=O)(=O)c5ccc(N[C@H](CCN(C)C)CSc6ccccc6)c([N+](=O)[O-])c5)cc4)CC3)c2)c1-c1ccc(Cl)cc1 [Compound 30, (R)-1-Butyl-5-(4-chlorophenyl)-4-(3-(4-(4-(4-(4-(dimethylamino)-1-(phenylthio)butan-2-ylamino)-3-nitrophenylsulfonamido)phenyl)piperazin-1-yl)phenyl)-2-methyl-1H-pyrrole-3-carboxylic acid] was tested, and the “Times less potent than compound 5 in H146 cell growth inhibition” value [2] was > 5 times and the “Times less potent than compound 28 in H146 cell growth inhibition” value [2] was > 10 times.

Cc1c(C(=O)O)c(-c2cccc(N3CCN(c4ccc(NS(=O)(=O)c5ccc(N[C@H](CCN(C)C)CSc6ccccc6)c([N+](=O)[O-])c5)cc4)CC3)c2)c(-c2ccc(Cl)cc2)n1C(C)C [Compound 28] was tested, and the “Times more potent than compound 4 in H146 cell growth inhibition” value ([2]; versus 4) was 20 times.

With CN(C)CC[C@H](CSc1ccccc1)Nc1ccc(S(=O)(=O)Nc2ccc(N3CCN(c4cccc(-c5c(C(=O)O)c(C(F)(F)F)n(C)c5-c5ccc(Cl)cc5)c4)CC3)cc2)cc1[N+](=O)[O-] [Compound 16, (R)-5-(4-Chlorophenyl)-4-(3-(4-(4-(4-(4-(dimethylamino)-1-(phenylthio)butan-2-ylamino)-3-nitrophenylsulfonamido)phenyl)piperazin-1-yl)phenyl)-1-methyl-2-(trifluoromethyl)-1H-pyrrole-3-carboxylic acid] the “Times less potent than compound 4 in H146 cell growth inhibition” value ([2]; versus 4) was 8 times.

In the case of CN(C)CC[C@H](CSc1ccccc1)Nc1ccc(S(=O)(=O)Nc2ccc(N3CCN(c4cccc(-c5c(C(=O)NS(C)(=O)=O)cnn5-c5ccc(Cl)cc5)c4)CC3)cc2)cc1[N+](=O)[O-] [Compound 24, (R)-1-(4-Chlorophenyl)-5-(3-(4-(4-(4-(4-(dimethylamino)-1-(phenylthio)butan-2-ylamino)-3-nitrophenylsulfonamido)phenyl)piperazin-1-yl)phenyl)-N-(methylsulfonyl)-1H-pyrazole-4-carboxamide], the “Cellular activity in H146” value [2] is reported as “minimal activity”.

With CCCn1c(C)c(C(=O)O)c(-c2cccc(N3CCN(c4ccc(NS(=O)(=O)c5ccc(N[C@H](CCN(C)C)CSc6ccccc6)c([N+](=O)[O-])c5)cc4)CC3)c2)c1-c1ccc(Cl)cc1 [Compound 29, (R)-5-(4-Chlorophenyl)-4-(3-(4-(4-(4-(4-(dimethylamino)-1-(phenylthio)butan-2-ylamino)-3-nitrophenylsulfonamido)phenyl)piperazin-1-yl)phenyl)-2-methyl-1-propyl-1H-pyrrole-3-carboxylic acid] the “Times less potent than compound 5 in H146 cell growth inhibition” value [2] was > 5 times and the “Times less potent than compound 28 in H146 cell growth inhibition” value [2] was > 10 times.

For Cc1cc(-c2cccc(N3CCN(c4ccc(NS(=O)(=O)c5ccc(N[C@H](CCN(C)C)CSc6ccccc6)c([N+](=O)[O-])c5)cc4)CC3)c2)c(-c2ccc(Cl)cc2)n1C [Compound 7], the “Inhibition of cell growth in H146” value ([2]; at concentrations as high as 10 μM) was “completely inactive”.

Cc1c(C(F)(F)F)c(-c2cccc(N3CCN(c4ccc(NS(=O)(=O)c5ccc(N[C@H](CCN(C)C)CSc6ccccc6)c([N+](=O)[O-])c5)cc4)CC3)c2)c(-c2ccc(Cl)cc2)n1C [Compound 14, (R)-N-(4-(4-(3-(2-(4-Chlorophenyl)-1,5-dimethyl-4-(trifluoromethyl)-1H-pyrrol-3-yl)phenyl)piperazin-1-yl)phenyl)-4-(4-(dimethylamino)-1-(phenylthio)butan-2-ylamino)-3-nitrobenzenesulfonamide] was tested, and the “Times less potent than compound 4 in binding to Bcl-2” value [1] was 100 times and the “Times less potent than compound 4 in H146 cell growth inhibition” value ([2]; versus 4) was > 100 times.

For CN(C)CC[C@H](CSc1ccccc1)Nc1ccc(S(=O)(=O)Nc2ccc(N3CCN(c4cccc(-c5c(C(=O)NS(C)(=O)=O)ncn5-c5ccc(Cl)cc5)c4)CC3)cc2)cc1[N+](=O)[O-] [Compound 23, (R)-1-(4-Chlorophenyl)-5-(3-(4-(4-(4-(4-(dimethylamino)-1-(phenylthio)butan-2-ylamino)-3-nitrophenylsulfonamido)phenyl)piperazin-1-yl)phenyl)-N-(methylsulfonyl)-1H-imidazole-4-carboxamide], the “Cellular activity in H146” value [2] was “minimal activity”.

In the case of CN(C)CC[C@H](CSc1ccccc1)Nc1ccc(S(=O)(=O)Nc2ccc(N3CCN(c4cccc(-c5c(C(=O)O)nn(C)c5-c5ccc(Cl)cc5)c4)CC3)cc2)cc1[N+](=O)[O-] [Compound 25, (R)-5-(4-Chlorophenyl)-4-(3-(4-(4-(4-(4-(dimethylamino)-1-(phenylthio)butan-2-ylamino)-3-nitrophenylsulfonamido)phenyl)piperazin-1-yl)phenyl)-1-methyl-1H-pyrazole-3-carboxylic acid], the “Cellular activity in H146” value [2] is reported as “minimal activity”.
